# Assay results from patent US20190321496A1, “AGENTS AND METHODS FOR THE DIAGNOSIS AND TREATMENT OF DISEASES ASSOCIATED WITH EXTRACELLULAR MATRIX TURNOVER” (Baker IDI Heart and Diabetes Institute Holdings Limited, priority 2016, published 2019).
# *1 amine or outer side, *2 acyl side, *3 side chain or, on linkers, in order; H or OH if unused. Where no end group is shown, it is not given here. [ ]: non-standard residue; d: D form. The star is where a group is joined. FITC = O=C1OC2(c3ccc(O)cc3Oc3cc(O)ccc32)c2ccc(NC(=S)*)cc21; Cys(Me) = CSC[C@H](N[*:1])C(=O)[*:2]; AEA = NCCOCC(=O)O
# Columns and labels:
# [1] = tested on: MMP2-predigested collagen IV; assay: In vitro binding to MMP2-predigested collagen IV coated glass slides; design: species or system human; conditions: for FITC signal on MMP2-predigested collagen IV coated glass slide: 0.1 mg/ml, room temperature
# Protocol: (§1) T-peptide-FITC (Alexa 488) and control peptide-FITC conjugates, as well as the unlabelled T-peptide-LPETG peptide, were commercially synthesized (GL Biochem. Shanghai, China) using solid phase peptide synthesis, as described elsewhere herein. The concentration of the synthesized peptides were all at 1 mg/ml.
# Binding to MMP2 digested collagen IV Collagen IV was applied to glass slides coated with polylysine. 1. Polylysine (MW of 30,000-70,000) at 0.1 mg/ml in 0.15 M borate buffer (pH 8.3) was prepared and filtered with […] pore size membrane syringe filter (Millex® Syringe Filter, Millipore). 2. Collagen IV (collagen type IV from human fibroblast culture, Sigma. Aldrich) was diluted to 1:10 with Hank's Balanced Salt Solution (HBSS) to 0.04 mg/ml. 3. For MMP2 digestion, Active recombinant human MMP2 enzyme (expressed in CHO cells) was purchased from Calbiochem. MMP2 stock solution was diluted with PBS to create 0.01 μg/μl MMP2 concentration according to manufacturer's recommendations. 4. For T-peptide-HTC testing using added MMP2, 20 μl of polylysine was spotted on several glass slides and left overnight at room temperature to dry. This forms a coating base for collagen to adhere to subsequently. 5. To predigest some collagen IV with MMP2, 3 μl of (0.1 mg/ml ) MMP2 was mixed with 35.8 μl of diluted collagen IV solution with 1.2 μl of 100 mM CaCl2 (3 mM Calcium final concentration) in an Eppendorf tube and incubated at 37° C. shaking at 600 rpm in an Eppendorf Thermomixer for 2 hours. 6. To create intact collagen IV coated slides, […] of diluted collagen IV solution was dropped onto the dried polylysine spot on the slide. 7. To create MMP2 predigested collagen IV coated slides, […] predigested collagen IV was dropped onto the dried polylysine spot on the glass slide. 8. The slides with collagen IV were dried uncovered overnight before testing. 9. Next day, […] of T-peptide-FITC (0.1 mg/ml) was added to the MMP2 predigested collagen spot, […] of T-peptide-FITC (0.1 mg/ml) was added to the intact collagen slide, and […] Control peptide-FITC (0.1mg/ml) was added to the MMP2 predigested collagen slide and the slides were incubated in a covered humidified box with wet paper towels at room temperature for 60 minutes. 10. For the ‘blocked epitope’ slide, […] of unlabelled T-peptide-LPETG (0.1 mg/ml) was added to the MMP2 predigested collagen slide and incubated similarly for 60 minutes. This step binds the epitopes present on the collagen IV and prevents further binding with the FITC labelled T-peptide. Next, […] of T-peptide-FITC (0.1 mg/ml) was added to the same area and incubated for 60 minutes. 11. All the treated slides were examined under fluorescence microscopy (IX81 Olympus microscope).
# [2] = tested on: areas of localised fibrosis in the myocardium; assay: Ex vivo binding to infarcted mouse myocardium (LAD occlusion); conditions: ex vivo sections of infarcted mouse hearts 6 weeks after LAD ligation
# Protocol: To assess whether labelled T-peptide can bind to fibrotic myocardium, a mouse model of myocardial infarction (via left anterior descending coronary artery (LAD) occlusion) was used. This model reflects a very defined area of fibrosis in the infarct zone.
# Mice were anaesthetised, the LAD ligated with a suture, and the thorax closed. After 60 mins the suture was removed. After 6 weeks and the development of fibrosis, parts of the infarcted hearts were sectioned and incubated with the T-peptide-FITC and control (s)-peptide-FITC constructs.
# [3] = tested on: unstable plaque in the mouse carotid artery; assay: Ex vivo binding to frozen sections of tandem stenosis mouse carotid unstable plaques; conditions: 0.1 mg/ml conjugate, 60 minutes, FITC channel fluorescence microscopy
# Protocol: (§2) Conjugates of T-peptide (TLTYTWS)-FITC (Alexa 488) and control peptide (Con-peptide)-FITC were commercially synthesized (GL Biochem, Shanghai China) using solid phase peptide synthesis, as described above. The concentration of the synthesized peptide-FITC conjugates was 1 mg/ml.
# (§3) At 12 weeks of age and 6 weeks after commencement of high fat diet, ApoE−/− mice (C57BL/6J background) were anaesthetized by intraperitoneal injection of a mixture of ketamine (100 mg/kg) and xylazine (10 mg/kg). An incision was made in the neck and the right common carotid artery exposed by dissecting away circumferential connective tissue. A tandem stenosis with 150 μm outer diameter was introduced with the distal stenosis placed 1 mm from the carotid artery bifurcation and the proximal stenosis 3 mm from the distal stenosis. A 6-0 blue braided polyester fibre suture was tied around the carotid artery and a 150 μm needle to achieve the stenosis diameter of 150 μm and the needle was subsequently removed after the suture was secured. The incision wound was sutured close and the mice resumed their high fat diet. […]
# (§4) Frozen […] tissue sections of tandem stenosis mouse carotid unstable plaques and aortic arch stable plaques on glass slides were thawed for 30 minutes at room temperature. […] The slides were then examined by fluorescence microscopy (IX81 Olympus microscope) in the FITC 488 nm channel.
# [4] = tested on: unstable plaque (right common carotid artery segment 1); assay: In vivo binding to unstable plaque after intravenous administration to tandem stenosis mice; design: species or system mouse; conditions: tandem stenosis ApoE-/- mice, bolus plus infusion into jugular vein, tissue taken 30 minutes after administration
# Protocol: (§5) The T-peptide-FITC (Alexa 488) and its control scrambled peptide Con-peptide-FITC were commercially synthesized (GL Biochem. Shanghai China) using solid phase peptide synthesis, as described elsewhere herein. The concentration of the synthesized peptides were all at 1 mg/ml,
# (§6) Each mouse with an average weight of 25 g, would receive […] of T-peptide-FITC or […] of Con-peptide-FITC diluted 1:2 to give concentration of 0.5 mg/ml, which works out to be […] body weight, […] of the diluted peptide will be given as a bolus into the left external jugular vein and the remaining […] by infusion at a rate of […] using an infusion pump connected to a plastic catheter inserted into the left external jugular vein. The method of bolus dose followed by infusion is to optimize the blood level and duration of the circulating peptide to enhance plaque entry and vascular tissue retention of the peptide, since the small molecular weight of the peptide is at risk of rapid clearance through the kidneys. […]
# (§7) The frozen section slides were thawed for 30 minutes at room temperature before examination under the fluorescence microscope (IX81 Olympus microscope) in the FITC 488 nm channel.
# [5] = tested on: stable aortic arch plaques; assay: Ex vivo binding to frozen sections of stable aortic arch plaques; design: species or system mouse; conditions: 0.1 mg/ml conjugate, 60 minutes, FITC channel fluorescence microscopy
# Protocol: as §2, §3, §4
# intact collagen IV = assay: In vitro binding to undigested collagen IV coated glass slides; design: species or system human; conditions: 0.1 mg/ml, 60 minutes, room temperature
# Protocol: as §1
# Binding to MMP2 digested collagen IV Collagen IV was applied to glass slides coated with polylysine. 1. Polylysine (MW of 30,000-70,000) at 0.1 mg/ml in 0.15 M borate buffer (pH 8.3) was prepared and filtered with […] pore size membrane syringe filter (Millex® Syringe Filter, Millipore). 2. Collagen IV (collagen type IV from human fibroblast culture, Sigma. Aldrich) was diluted to 1:10 with Hank's Balanced Salt Solution (HBSS) to 0.04 mg/ml. 3. For MMP2 digestion, Active recombinant human MMP2 enzyme (expressed in CHO cells) was purchased from Calbiochem. MMP2 stock solution was diluted with PBS to create 0.01 μg/μl MMP2 concentration according to manufacturer's recommendations. 4. For T-peptide-HTC testing using added MMP2, 20 μl of polylysine was spotted on several glass slides and left overnight at room temperature to dry. This forms a coating base for collagen to adhere to subsequently. 5. […] All the treated slides were examined under fluorescence microscopy (IX81 Olympus microscope).
# [6] = tested on: stable plaque (aortic arch segment 5); assay: In vivo binding to stable aortic arch plaque after intravenous administration to tandem stenosis mice; design: species or system mouse; conditions: tandem stenosis ApoE-/- mice, bolus plus infusion into jugular vein, tissue taken 30 minutes after administration
# Protocol: as §5, §6, §7
Substance,binding to MMP2-predigested collagen IV fibres with additional amino acids at the N terminus [1],binding to fibrotic myocardium [2],binding to unstable plaque (fluorescent signal) [3],binding to the unstable plaque following intravenous administration [4],FITC signal on MMP2-predigested collagen IV coated glass slide ([1]; 60 minutes),binding to stable plaque (fluorescent signal) [5],FITC signal on undigested collagen IV coated glass slide (intact collagen IV),"FITC signal on MMP2-predigested collagen IV slide preincubated with unlabelled T-peptide ([1]; blocked epitope slide: unlabelled T-peptide-LPETG 0.1 mg/ml 60 minutes, then T-peptide-FITC 0.1 mg/ml 60 minutes)",binding to the stable aortic arch plaque after intravenous administration [6],"blocking of T-peptide-FITC binding to MMP2-predigested collagen IV ([1]; preincubation 0.1 mg/ml, 60 minutes)"
GGGWWSSASPAATLTYTWSGLPAPASPA-eeeeeeee-(Aop)-PLGC(Me)AG-rrrrrrrrr-GAGAPAC (GGGWWSSASPAATLTYTWSGLPAPASPA[dE][dE][dE][dE][dE][dE][dE][dE][AEA]PLG[Cys(Me)]AG[dR][dR][dR][dR][dR][dR][dR][dR][dR]GAGAPAC) [GGG-T-peptide-ACPP-cysteine],did not reduce or eliminate binding,,,,,,,,,
"H-GLGYGWSGK(FITC)-OH (SMILES CC(C)C[C@H](NC(=O)CN)C(=O)NCC(=O)N[C@@H](Cc1ccc(O)cc1)C(=O)NCC(=O)N[C@@H](Cc1c[nH]c2ccccc12)C(=O)N[C@@H](CO)C(=O)NCC(=O)N[C@@H](CCCCNC(=S)Nc1ccc2c(c1)C(=O)OC21c2ccc(O)cc2Oc2cc(O)ccc21)C(=O)O) [control peptide-FITC conjugate, reference compound]",,no evidence of binding,no significant binding,no evidence of binding,no FITC signal,,,,,
H-TLTYTWSGK(FITC)-OH (SMILES CC(C)C[C@H](NC(=O)[C@@H](N)[C@@H](C)O)C(=O)N[C@H](C(=O)N[C@@H](Cc1ccc(O)cc1)C(=O)N[C@H](C(=O)N[C@@H](Cc1c[nH]c2ccccc12)C(=O)N[C@@H](CO)C(=O)NCC(=O)N[C@@H](CCCCNC(=S)Nc1ccc2c(c1)C(=O)OC21c2ccc(O)cc2Oc2cc(O)ccc21)C(=O)O)[C@@H](C)O)[C@@H](C)O) [T-peptide-FITC conjugate],,binds specifically to areas of localised fibrosis in the myocardium,strong fluorescent signal within the lumen,strong binding,strong FITC signal,no fluorescent signal within the vascular lumen,no FITC signal,no significant FITC signal,no binding,
HTLTYTWSGGGLPETGGHHHHHH-OH [T-peptide-LPETG],,,,,,,,,,blocked binding
